Read-outs that look alike come from different tables or passages of the source.
What was measured:
Type in all cases: cell-based
SW-620 = assay: NCI 60 five-dose screen SW-620; settings: Homo sapiens; for CC50: read-out: LC50 (the source's name) (converted)
NCI-H522 = assay: NCI 60 five-dose screen NCI-H522; settings: Homo sapiens; for CC50: read-out: LC50 (the source's name) (converted)
NCI-H460 = assay: NCI 60 five-dose screen NCI-H460; settings: Homo sapiens; for CC50: read-out: LC50 (the source's name) (converted)
COLO 205 = assay: NCI 60 five-dose screen COLO 205; settings: Homo sapiens; for CC50: read-out: LC50 (the source's name) (converted)
HCT-15 = assay: NCI 60 five-dose screen HCT-15; settings: Homo sapiens; for CC50: read-out: LC50 (the source's name) (converted)
HOP-92 = assay: NCI 60 five-dose screen HOP-92; settings: Homo sapiens; for CC50: read-out: LC50 (the source's name) (converted)
UO-31 = assay: NCI 60 five-dose screen UO-31; settings: Homo sapiens; for CC50: read-out: LC50 (the source's name) (converted)
LOX IMVI = assay: NCI 60 five-dose screen LOX IMVI; settings: Homo sapiens; for CC50: read-out: LC50 (the source's name) (converted)
MDA-MB-231/ATCC = assay: NCI 60 five-dose screen MDA-MB-231/ATCC; settings: Homo sapiens; for CC50: read-out: LC50 (the source's name) (converted)
CCRF-CEM = assay: NCI 60 five-dose screen CCRF-CEM; settings: Homo sapiens; for CC50: read-out: LC50 (the source's name)
NCI-H322M = assay: NCI 60 five-dose screen NCI-H322M; settings: Homo sapiens; for CC50: read-out: LC50 (the source's name) (converted)
MDA-MB-435 = assay: NCI 60 five-dose screen MDA-MB-435; settings: Homo sapiens; for CC50: read-out: LC50 (the source's name) (converted)
K-562 = assay: NCI 60 five-dose screen K-562; settings: Homo sapiens
SN12C = assay: NCI 60 five-dose screen SN12C; settings: Homo sapiens; for CC50: read-out: LC50 (the source's name) (converted)
[1] = K562, read-out: LC50 (the source's name)

O=c1ccc(Cn2c(C(F)(F)F)cc3c(Cl)ncnc32)c[nH]1 [NUCC-0226698]
GI50 (SW-620): 5.5 µM | IC50 (SW-620): 7.08 µM | IC (TGI) (SW-620): 26.3 µM | CC50 (SW-620): ≥ 100 µM | GI50 (NCI-H522): 2.04 µM | IC50 (NCI-H522): 3.98 µM | IC (TGI) (NCI-H522): 4.9 µM | CC50 (NCI-H522): ≥ 100 µM | GI50 (NCI-H460): 12 µM | IC50 (NCI-H460): 16.6 µM | IC (TGI) (NCI-H460): 36.3 µM | CC50 (NCI-H460): ≥ 100 µM | GI50 (COLO 205): 87.1 µM | IC50 (COLO 205): 100 µM | IC (TGI) (COLO 205): 100 µM | CC50 (COLO 205): ≥ 100 µM | GI50 (HCT-15): 2.95 µM | IC50 (HCT-15): 3.8 µM | IC (TGI) (HCT-15): 14.8 µM | CC50 (HCT-15): ≥ 100 µM | GI50 (HOP-92): 22.9 µM | IC50 (HOP-92): 100 µM | IC (TGI) (HOP-92): 100 µM | CC50 (HOP-92): ≥ 100 µM | GI50 (UO-31): 5.01 µM | IC50 (UO-31): 14.1 µM | IC (TGI) (UO-31): 19.1 µM | CC50 (UO-31): 47.9 µM | GI50 (LOX IMVI): 1.66 µM | IC50 (LOX IMVI): 2.88 µM | IC (TGI) (LOX IMVI): 3.09 µM | CC50 (LOX IMVI): 5.89 µM | GI50 (MDA-MB-231/ATCC): 4.68 µM | IC50 (MDA-MB-231/ATCC): 10 µM | IC (TGI) (MDA-MB-231/ATCC): 18.2 µM | CC50 (MDA-MB-231/ATCC): 57.5 µM | GI50 (CCRF-CEM): 4.37 µM | IC50 (CCRF-CEM): 6.61 µM | IC (TGI) (CCRF-CEM): 100 µM | CC50 (CCRF-CEM): ≥ 100 µM | GI50 (NCI-H322M): 14.1 µM | IC50 (NCI-H322M): 32.4 µM | IC (TGI) (NCI-H322M): 39.8 µM | CC50 (NCI-H322M): ≥ 100 µM | GI50 (MDA-MB-435): 4.68 µM | IC50 (MDA-MB-435): 7.24 µM | IC (TGI) (MDA-MB-435): 20.4 µM | CC50 (MDA-MB-435): 74.1 µM | GI50 (K-562; K562): 2.82 µM | IC50 (K-562; K562): 3.39 µM | IC (TGI) (K-562; K562): 100 µM | CC50 (K-562; [1]): ≥ 100 µM | GI50 (SN12C): 6.46 µM | IC50 (SN12C): 11.7 µM | IC (TGI) (SN12C): 23.4 µM | CC50 (SN12C): 69.2 µM

Fc1ccc(N2CC(Cn3c(C(F)(F)F)cc4c(Cl)ncnc43)C2)c(F)c1 [NUCC-0226695]
GI50 (SW-620): 1.91 µM | IC50 (SW-620): 3.16 µM | IC (TGI) (SW-620): 3.8 µM | CC50 (SW-620): 7.76 µM | GI50 (NCI-H522): 1.82 µM | IC50 (NCI-H522): 3.47 µM | IC (TGI) (NCI-H522): 3.98 µM | CC50 (NCI-H522): 8.71 µM | GI50 (NCI-H460): 3.98 µM | IC50 (NCI-H460): 4.68 µM | IC (TGI) (NCI-H460): 14.5 µM | CC50 (NCI-H460): 44.7 µM | GI50 (COLO 205): 15.1 µM | IC50 (COLO 205): 26.9 µM | IC (TGI) (COLO 205): 32.4 µM | CC50 (COLO 205): 70.8 µM | GI50 (HCT-15): 1.78 µM | IC50 (HCT-15): 3.09 µM | IC (TGI) (HCT-15): 3.55 µM | CC50 (HCT-15): 7.08 µM | GI50 (HOP-92): 11 µM | IC50 (HOP-92): 26.9 µM | IC (TGI) (HOP-92): 25.7 µM | CC50 (HOP-92): 58.9 µM | GI50 (UO-31): 2.69 µM | IC50 (UO-31): 5.75 µM | IC (TGI) (UO-31): 10.7 µM | CC50 (UO-31): 33.1 µM | GI50 (LOX IMVI): 1.62 µM | IC50 (LOX IMVI): 2.82 µM | IC (TGI) (LOX IMVI): 3.02 µM | CC50 (LOX IMVI): 5.5 µM | GI50 (MDA-MB-231/ATCC): 1.62 µM | IC50 (MDA-MB-231/ATCC): 2.95 µM | IC (TGI) (MDA-MB-231/ATCC): 3.09 µM | CC50 (MDA-MB-231/ATCC): 5.89 µM | GI50 (CCRF-CEM): 10.5 µM | IC50 (CCRF-CEM): 41.7 µM | IC (TGI) (CCRF-CEM): 100 µM | CC50 (CCRF-CEM): ≥ 100 µM | GI50 (NCI-H322M): 10.7 µM | IC50 (NCI-H322M): 20.4 µM | IC (TGI) (NCI-H322M): 22.9 µM | CC50 (NCI-H322M): 47.9 µM | GI50 (MDA-MB-435): 4.9 µM | IC50 (MDA-MB-435): 7.59 µM | IC (TGI) (MDA-MB-435): 17.8 µM | CC50 (MDA-MB-435): 44.7 µM | GI50 (K-562; K562): 2.34 µM | IC50 (K-562; K562): 3.09 µM | IC (TGI) (K-562; K562): 7.08 µM | CC50 (K-562; [1]): ≥ 100 µM | GI50 (SN12C): 1.95 µM | IC50 (SN12C): 3.31 µM | IC (TGI) (SN12C): 5.01 µM | CC50 (SN12C): 16.2 µM

FC(F)(F)c1cc2c(Cl)ncnc2n1CCN1CCCCC1 [NUCC-0226679]
GI50 (SW-620; five-dose): 11.2 µM | IC50 (SW-620; five-dose): 15.8 µM | IC (TGI) (SW-620; five-dose): 28.8 µM | CC50 (SW-620; five-dose): 74.1 µM | GI50 (NCI-H522; five-dose): 1.7 µM | IC50 (NCI-H522; five-dose): 3.24 µM | IC (TGI) (NCI-H522; five-dose): 3.47 µM | GI50 (NCI-H460; five-dose): 18.2 µM | IC50 (NCI-H460; five-dose): 26.3 µM | IC (TGI) (NCI-H460; five-dose): 50.1 µM | CC50 (NCI-H460; five-dose): ≥ 100 µM | GI50 (COLO 205; five-dose): 52.5 µM | IC50 (COLO 205; five-dose): 100 µM | IC (TGI) (COLO 205; five-dose): 100 µM | CC50 (COLO 205; five-dose): ≥ 100 µM | GI50 (HCT-15; five-dose): 3.16 µM | IC50 (HCT-15; five-dose): 4.17 µM | IC (TGI) (HCT-15; five-dose): 12.9 µM | CC50 (HCT-15; five-dose): 55 µM | GI50 (HOP-92; five-dose): 19.5 µM | IC50 (HOP-92; five-dose): 63.1 µM | IC (TGI) (HOP-92; five-dose): 53.7 µM | CC50 (HOP-92; five-dose): ≥ 100 µM | GI50 (UO-31; five-dose): 1.74 µM | IC50 (UO-31; five-dose): 3.31 µM | IC (TGI) (UO-31; five-dose): 3.55 µM | CC50 (UO-31; five-dose): 7.41 µM | GI50 (LOX IMVI; five-dose): 1.7 µM | IC50 (LOX IMVI; five-dose): 2.95 µM | IC (TGI) (LOX IMVI; five-dose): 3.09 µM | CC50 (LOX IMVI; five-dose): 5.75 µM | GI50 (MDA-MB-231/ATCC; five-dose): 5.5 µM | IC50 (MDA-MB-231/ATCC; five-dose): 14.5 µM | IC (TGI) (MDA-MB-231/ATCC; five-dose): 19.5 µM | CC50 (MDA-MB-231/ATCC; five-dose): 50.1 µM | GI50 (CCRF-CEM; five-dose): 11 µM | IC50 (CCRF-CEM; five-dose): 74.1 µM | IC (TGI) (CCRF-CEM; five-dose): 100 µM | CC50 (CCRF-CEM; five-dose): ≥ 100 µM | GI50 (NCI-H322M; five-dose): 15.5 µM | IC50 (NCI-H322M; five-dose): 36.3 µM | IC (TGI) (NCI-H322M; five-dose): 43.7 µM | CC50 (NCI-H322M; five-dose): ≥ 100 µM | GI50 (MDA-MB-435; five-dose): 13.2 µM | IC50 (MDA-MB-435; five-dose): 21.9 µM | IC (TGI) (MDA-MB-435; five-dose): 30.2 µM | CC50 (MDA-MB-435; five-dose): 67.6 µM | GI50 (K-562; K562, five-dose): 2.88 µM | IC50 (K-562; K562, five-dose): 3.63 µM | IC (TGI) (K-562; K562, five-dose): 100 µM | CC50 (K-562; K562, five-dose, read-out: LC50 (the source's name)): ≥ 100 µM | GI50 (SN12C; five-dose): 19.5 µM | IC50 (SN12C; five-dose): 34.7 µM | IC (TGI) (SN12C; five-dose): 100 µM | CC50 (SN12C; five-dose): ≥ 100 µM

Source: patent publication US20240109903A1, “SUBSTITUTED HETEROCYCLES FOR TREATING CANCER” (Northwestern University, priority 2022, published 2024)
